Literature values in patent US4039549A, “Olefinic derivatives of amino acids” (Merrell Toraude et Compagnie, priority 1976, dated 1977).

Key:
[1] = test system: γ-aminobutyric acid transaminase; conditions: literature
[2] = test system: brain levels of γ-aminobutyric acid; conditions: reversible effect; literature

Row | Compound | inhibition of γ-aminobutyric acid transaminase (mode) [1] | duration of effect (elevation of brain γ-aminobutyric acid levels) [2]
1 | NCC#CC(=O)O [4-aminotetrolic acid] | competitive reversible inhibitor | –
2 | CCCC(CCC)C(=O)O [n-dipropylacetate] | competitively inhibiting | about 2 hours
